# Experimental data taken from the supplement of paper PMC10307832.
# Assays:
# Test in all cases: relative viability (nuclei count vs DMSO), 5 days (fraction); higher = more cells survive
# Crenolanib + Decitabine = compound: CC1(COc2ccc3c(c2)ncn3-c2ccc3cccc(N4CCC(N)CC4)c3n2)COC1 [Crenolanib] + Nc1ncn([C@H]2C[C@H](O)[C@@H](CO)O2)c(=O)n1 [Decitabine] (partner 2 µM)
# Summary of the method: (§1)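 Relative viability is defined as nuclei in treated wells over nuclei in vehicle wells. Duplicate plates were run and medians reported. Lung cancer cell lines in 1536-well plates were dosed by pin tool one day after seeding, with one drug or with a fixed anchor-drug dose plus five library-drug doses (not always all listed) in √10 steps, and nuclei were counted after 5 days.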
# Crenolanib + Crizotinib = compound: CC1(COc2ccc3c(c2)ncn3-c2ccc3cccc(N4CCC(N)CC4)c3n2)COC1 [Crenolanib] + C[C@@H](Oc1cc(-c2cnn(C3CCNCC3)c2)cnc1N)c1c(Cl)ccc(F)c1Cl [Crizotinib] (partner 1 µM)
# Summary of the method: as §1
# Tivantinib + Vorinostat = compound: O=C1NC(=O)[C@@H](c2cn3c4c(cccc24)CCC3)[C@@H]1c1c[nH]c2ccccc12 [Tivantinib] + O=C(CCCCCCC(=O)Nc1ccccc1)NO [Vorinostat] (partner 1 µM)
# Summary of the method: as §1
# Tivantinib + Tozasertib = compound: O=C1NC(=O)[C@@H](c2cn3c4c(cccc24)CCC3)[C@@H]1c1c[nH]c2ccccc12 [Tivantinib] + Cc1cc(Nc2cc(N3CCN(C)CC3)nc(Sc3ccc(NC(=O)C4CC4)cc3)n2)n[nH]1 [Tozasertib] (partner 0.1 µM)
# Summary of the method: as §1
Cell Line,relative viability (Crenolanib + Decitabine; first compound 0.01 µM),relative viability (Crenolanib + Decitabine; first compound 0.03162 µM),relative viability (Crenolanib + Decitabine; first compound 0.1 µM),relative viability (Crenolanib + Decitabine; first compound 0.3162 µM),relative viability (Crenolanib + Decitabine; first compound 1 µM),relative viability (Crenolanib + Crizotinib; first compound 0.01 µM),relative viability (Crenolanib + Crizotinib; first compound 0.03162 µM),relative viability (Crenolanib + Crizotinib; first compound 0.1 µM),relative viability (Crenolanib + Crizotinib; first compound 0.3162 µM),relative viability (Crenolanib + Crizotinib; first compound 1 µM),relative viability (Tivantinib + Vorinostat; first compound 0.01 µM),relative viability (Tivantinib + Vorinostat; first compound 0.03162 µM),relative viability (Tivantinib + Vorinostat; first compound 0.1 µM),relative viability (Tivantinib + Vorinostat; first compound 0.3162 µM),relative viability (Tivantinib + Tozasertib; first compound 0.01 µM),relative viability (Tivantinib + Tozasertib; first compound 0.03162 µM),relative viability (Tivantinib + Tozasertib; first compound 0.1 µM),relative viability (Tivantinib + Tozasertib; first compound 0.3162 µM)
ABC-1,1.42,1.22,0.978,1.17,1.15,1.01,0.883,1.13,1.01,1.19,1.44,1.32,1.01,1.21,0.209,0.155,0.215,0.223
SW 900,0.48,–,0.507,0.517,0.407,–,–,–,–,–,0.501,0.438,0.593,0.444,0.642,0.577,0.636,0.576
PC-14,0.167,0.195,0.212,0.21,0.226,0.902,0.93,0.825,0.966,1.03,0.832,0.821,0.755,0.356,0.635,0.558,0.594,0.379
NCI-H1648,0.521,–,0.477,0.467,0.59,–,–,–,–,–,–,0.445,0.528,0.272,0.71,0.385,0.425,–
A549,0.208,0.258,0.282,0.221,0.293,0.853,0.76,0.769,0.99,0.717,–,–,–,–,–,–,–,–
A-427,0.573,–,0.592,0.553,0.52,0.854,0.946,0.804,0.87,1.02,0.859,0.938,0.842,0.85,0.21,0.2,0.198,0.169
NCI-H1915,0.26,0.275,0.275,0.247,0.264,0.9,0.896,0.868,0.856,0.855,0.492,0.496,0.49,0.568,0.427,0.412,0.422,0.391
LOU-NH91,0.863,0.792,0.822,0.856,0.853,0.765,0.753,0.688,0.722,0.729,0.838,0.811,0.916,0.749,0.663,0.675,0.593,0.537
NCI-H1734,0.55,0.549,0.507,0.591,0.507,0.684,0.708,0.657,0.778,0.693,0.8,0.745,0.768,0.818,0.273,0.278,0.252,0.247
LCLC-97TM1,0.203,0.221,0.193,0.226,0.208,0.42,0.355,0.479,0.324,0.457,0.71,0.284,0.671,0.833,0.25,0.218,0.25,0.218
RERF-LC-KJ,0.672,0.699,0.635,0.697,0.717,0.796,0.848,0.825,0.852,0.886,0.717,0.628,0.717,0.502,0.539,0.532,0.473,0.403
BEN,0.768,0.72,0.76,0.612,0.749,0.89,0.839,0.863,0.763,0.847,0.591,0.566,0.528,0.515,0.529,0.549,0.574,0.537
NCI-H1703,–,–,–,–,–,0.67,0.712,0.147,0.219,0.125,–,–,–,–,–,–,–,–
LCLC-103H,0.752,0.709,0.692,0.769,0.72,1.12,1.03,1.06,1,1.01,0.756,0.642,0.749,0.936,0.426,0.493,0.474,0.374
Calu-6,–,–,–,–,–,0.812,0.814,0.787,0.854,0.835,–,–,–,–,–,–,–,–
NCI-H2342,0.766,0.649,0.742,0.903,0.694,–,–,–,–,–,0.739,0.766,0.788,0.614,0.556,0.51,0.51,0.394
EBC-1,–,–,–,–,–,0.18,0.198,0.188,0.134,0.197,–,–,–,–,–,–,–,–
NCI-H522,0.668,0.63,0.665,0.64,0.607,–,–,–,–,–,0.906,0.754,0.973,0.548,0.636,0.463,0.536,0.491
NCI-H1793,0.649,0.495,0.537,0.549,0.475,–,–,–,–,–,0.851,0.875,0.663,0.474,0.427,0.329,0.353,0.222
NCI-H1299,–,–,–,–,–,0.998,0.914,0.924,0.952,0.891,–,–,–,–,–,–,–,–
NCI-H2228,–,–,–,–,–,0.483,0.38,0.407,0.577,0.516,0.639,0.527,0.651,0.733,–,0.356,0.221,0.214
IA-LM,–,–,–,–,–,0.925,0.9,0.631,1.29,1.26,1.01,0.826,0.87,0.895,–,–,–,–
CAL-12T,–,–,–,–,–,0.66,0.709,0.704,0.816,0.787,0.67,0.874,0.74,0.568,0.416,0.337,0.259,0.293
NCI-H1792,0.567,0.555,0.488,0.569,0.56,1.05,0.958,0.933,1.17,0.943,–,–,–,–,–,–,–,–
